PubChem BioAssay (NCI)
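All cell lines were grown in 96-well plates and treated with compound for 48 hours. GI50: concentration for 50% inhibition of growth. The concentration for full growth arrest is given as TGI.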

Assays:
Assay in all cases: NCI-60 cell line screen, 48 h
HCC-2998 colon = tested on: HCC-2998 colon
KM12 colon = tested on: KM12 colon
HT29 colon = tested on: HT29 colon
NCI-H460 lung = tested on: NCI-H460 lung
CCRF-CEM leukemia = tested on: CCRF-CEM leukemia
HOP-92 NSCLC = tested on: HOP-92 NSCLC
OVCAR-8 ovarian = tested on: OVCAR-8 ovarian
U251 CNS = tested on: U251 CNS
BT-549 breast = tested on: BT-549 breast
HS 578T breast = tested on: HS 578T breast
A549 NSCLC = tested on: A549 NSCLC
SNB-75 CNS = tested on: SNB-75 CNS
SF-268 CNS = tested on: SF-268 CNS
EKVX NSCLC = tested on: EKVX NSCLC
UACC-62 melanoma = tested on: UACC-62 melanoma
PC-3 prostate = tested on: PC-3 prostate
786-0 renal = tested on: 786-0 renal
SN12C renal = tested on: SN12C renal
LOX IMVI melanoma = tested on: LOX IMVI melanoma
RPMI-8226 leukemia = tested on: RPMI-8226 leukemia
HCT-15 colon = tested on: HCT-15 colon
MOLT-4 leukemia = tested on: MOLT-4 leukemia
NCI/ADR-RES ovarian = tested on: NCI/ADR-RES ovarian
HCT-116 colon = tested on: HCT-116 colon
MCF7 breast = tested on: MCF7 breast
COLO 205 colon = tested on: COLO 205 colon
SF-539 CNS = tested on: SF-539 CNS
SK-OV-3 ovarian = tested on: SK-OV-3 ovarian
HL-60(TB) leukemia = tested on: HL-60(TB) leukemia
MALME-3M melanoma = tested on: MALME-3M melanoma
OVCAR-4 ovarian = tested on: OVCAR-4 ovarian
UACC-257 melanoma = tested on: UACC-257 melanoma
MDA-MB-435 = tested on: MDA-MB-435
A498 renal = tested on: A498 renal
SF-295 CNS = tested on: SF-295 CNS
SR leukemia = tested on: SR leukemia
TK-10 renal = tested on: TK-10 renal
OVCAR-5 ovarian = tested on: OVCAR-5 ovarian
NCI-H226 lung = tested on: NCI-H226 lung
T-47D breast = tested on: T-47D breast
SK-MEL-2 melanoma = tested on: SK-MEL-2 melanoma
SNB-19 CNS = tested on: SNB-19 CNS
NCI-H522 lung = tested on: NCI-H522 lung
UO-31 renal = tested on: UO-31 renal
ACHN renal = tested on: ACHN renal
HOP-62 NSCLC = tested on: HOP-62 NSCLC
RXF 393 renal = tested on: RXF 393 renal
SK-MEL-28 melanoma = tested on: SK-MEL-28 melanoma
SW-620 colon = tested on: SW-620 colon
M14 melanoma = tested on: M14 melanoma
DU-145 prostate = tested on: DU-145 prostate
IGROV1 ovarian = tested on: IGROV1 ovarian
K-562 leukemia = tested on: K-562 leukemia
NCI-H23 lung = tested on: NCI-H23 lung
CAKI-1 renal = tested on: CAKI-1 renal
SK-MEL-5 melanoma = tested on: SK-MEL-5 melanoma
MDA-MB-231 breast = tested on: MDA-MB-231 breast

For `Cc1ccc(C)c(COc2cc(NC(=O)c3ccc4c(c3)OCO4)ccc2N(C)S(C)(=O)=O)c1`, the GI50 (HCC-2998 colon) was 132 nM, the TGI (HCC-2998 colon) was 397 nM and the GI50 (KM12 colon) was 77 nM. The TGI (KM12 colon) was 1060 nM, the GI50 (HT29 colon) was 114 nM and the TGI (HT29 colon) was 2340 nM. The GI50 (NCI-H460 lung) was 139 nM, the TGI (NCI-H460 lung) was 711 nM and the GI50 (CCRF-CEM leukemia) was 86.6 nM. For the same compound, the TGI (CCRF-CEM leukemia) was > 100000 nM, the GI50 (HOP-92 NSCLC) was 2590 nM and the TGI (HOP-92 NSCLC) was > 100000 nM. The GI50 (OVCAR-8 ovarian) was 286 nM, the TGI (OVCAR-8 ovarian) was > 100000 nM and the GI50 (U251 CNS) was 238 nM. For the same compound, the TGI (U251 CNS) was > 46800 nM, the GI50 (BT-549 breast) was 374 nM and the TGI (BT-549 breast) was > 100000 nM. It also gave a GI50 (HS 578T breast) of 36.3 nM, a TGI (HS 578T breast) of 307 nM and a GI50 (A549 NSCLC) of 282 nM. The TGI (A549 NSCLC) was > 36900 nM, the GI50 (SNB-75 CNS) was 111 nM and the TGI (SNB-75 CNS) was 1180 nM. The GI50 (SF-268 CNS) was 310 nM, the TGI (SF-268 CNS) was > 100000 nM and the GI50 (EKVX NSCLC) was 466 nM. For the same compound, the TGI (EKVX NSCLC) was > 100000 nM, the GI50 (UACC-62 melanoma) was 179 nM and the TGI (UACC-62 melanoma) was > 100000 nM. For the same compound, the GI50 (PC-3 prostate) was 131 nM, the TGI (PC-3 prostate) was > 100000 nM and the GI50 (786-0 renal) was 192 nM. The GI50 (SN12C renal) was 447 nM, the TGI (SN12C renal) was > 100000 nM and the GI50 (LOX IMVI melanoma) was 79.3 nM. The TGI (LOX IMVI melanoma) was > 100000 nM, the GI50 (RPMI-8226 leukemia) was 319 nM and the TGI (RPMI-8226 leukemia) was > 100000 nM. The GI50 (HCT-15 colon) was 127 nM, the TGI (HCT-15 colon) was > 100000 nM and the GI50 (MOLT-4 leukemia) was 228 nM. For the same compound, the TGI (MOLT-4 leukemia) was > 100000 nM, the GI50 (NCI/ADR-RES ovarian) was 56.2 nM and the TGI (NCI/ADR-RES ovarian) was 407 nM. The GI50 (HCT-116 colon) was 66.2 nM, the TGI (HCT-116 colon) was 1120 nM and the GI50 (MCF7 breast) was 71.6 nM. For the same compound, the TGI (MCF7 breast) was > 100000 nM, the GI50 (COLO 205 colon) was 257 nM and the TGI (COLO 205 colon) was 816 nM. It also gave a GI50 (SF-539 CNS) of 118 nM, a TGI (SF-539 CNS) of 790 nM and a GI50 (SK-OV-3 ovarian) of 217 nM. For the same compound, the TGI (SK-OV-3 ovarian) was > 100000 nM, the GI50 (HL-60(TB) leukemia) was 38.7 nM and the TGI (HL-60(TB) leukemia) was 489 nM. For the same compound, the GI50 (MALME-3M melanoma) was 111 nM, the TGI (MALME-3M melanoma) was > 100000 nM and the GI50 (OVCAR-4 ovarian) was 648 nM. For the same compound, the TGI (OVCAR-4 ovarian) was > 100000 nM, the GI50 (UACC-257 melanoma) was 1870 nM and the TGI (UACC-257 melanoma) was > 100000 nM. For the same compound, the GI50 (MDA-MB-435) was 24.8 nM, the TGI (MDA-MB-435) was 71.8 nM and the GI50 (A498 renal) was 122 nM. It also gave a TGI (A498 renal) of 853 nM, a GI50 (SF-295 CNS) of 62.1 nM and a TGI (SF-295 CNS) of 439 nM. For the same compound, the GI50 (SR leukemia) was 45.7 nM, the TGI (SR leukemia) was > 100000 nM and the GI50 (TK-10 renal) was 402 nM. For the same compound, the TGI (TK-10 renal) was > 100000 nM, the GI50 (OVCAR-5 ovarian) was 513 nM and the TGI (OVCAR-5 ovarian) was > 100000 nM. For the same compound, the GI50 (NCI-H226 lung) was 904 nM, the TGI (NCI-H226 lung) was > 100000 nM and the GI50 (T-47D breast) was 807 nM. For the same compound, the TGI (T-47D breast) was > 100000 nM, the GI50 (SK-MEL-2 melanoma) was 595 nM and the GI50 (SNB-19 CNS) was 332 nM. For the same compound, the TGI (SNB-19 CNS) was > 100000 nM, the GI50 (NCI-H522 lung) was 81.5 nM and the TGI (NCI-H522 lung) was 424 nM. The GI50 (UO-31 renal) was 348 nM, the TGI (UO-31 renal) was > 100000 nM and the GI50 (ACHN renal) was 420 nM. The TGI (ACHN renal) was > 100000 nM, the GI50 (HOP-62 NSCLC) was 570 nM and the TGI (HOP-62 NSCLC) was > 100000 nM. For the same compound, the GI50 (RXF 393 renal) was 128 nM, the TGI (RXF 393 renal) was 403 nM and the GI50 (SK-MEL-28 melanoma) was 3740 nM. For the same compound, the TGI (SK-MEL-28 melanoma) was > 100000 nM, the GI50 (SW-620 colon) was 77.8 nM and the TGI (SW-620 colon) was > 100000 nM. It also gave a GI50 (M14 melanoma) of 65.7 nM, a TGI (M14 melanoma) of 560 nM and a GI50 (DU-145 prostate) of 172 nM. For the same compound, the TGI (DU-145 prostate) was 543 nM, the GI50 (IGROV1 ovarian) was 237 nM and the TGI (IGROV1 ovarian) was > 100000 nM. The GI50 (K-562 leukemia) was 44.6 nM, the TGI (K-562 leukemia) was > 100000 nM and the GI50 (NCI-H23 lung) was 213 nM. The TGI (NCI-H23 lung) was > 100000 nM, the GI50 (CAKI-1 renal) was 160 nM and the TGI (CAKI-1 renal) was > 100000 nM. For the same compound, the GI50 (SK-MEL-5 melanoma) was 172 nM, the TGI (SK-MEL-5 melanoma) was 1670 nM and the GI50 (MDA-MB-231 breast) was 231 nM. For the same compound, the TGI (MDA-MB-231 breast) was 798 nM.
